We go through 8 compounds from article PMC9692855, “Amaryllidaceae Alkaloids from Clivia miniata (Lindl.) Bosse (Amaryllidaceae): Isolation, Structural Elucidation, and Biological Activity” (Plants, 2022).

Assay [1] has as its target human recombinant AChE (E.C. 3.1.1.7) (Homo sapiens, UniProt P22303). Description: biochemical. Conditions: for inhibition at 100 µM: read-out: % Inhibition hAChE ± SEM.
Assay [2] concerns the target human plasma BuChE (E.C. 3.1.1.8) (Homo sapiens, UniProt P06276). In words: biochemical. Conditions: for inhibition at 100 µM: read-out: % Inhibition hBuChE ± SEM.
[3] abbreviates: mean ± SEM of three independent measurements, each in triplicate, read-out: IC50 hAChE ± SEM.
[4] abbreviates: tested at 100 µM compound concentration.
[5] abbreviates: mean ± SEM of three independent measurements, each in triplicate, read-out: IC50 hBuChE ± SEM.

Read-outs that look alike come from different tables or passages of the source.

human recombinant AChE (E.C. 3.1.1.7), sequence (P22303 32-614): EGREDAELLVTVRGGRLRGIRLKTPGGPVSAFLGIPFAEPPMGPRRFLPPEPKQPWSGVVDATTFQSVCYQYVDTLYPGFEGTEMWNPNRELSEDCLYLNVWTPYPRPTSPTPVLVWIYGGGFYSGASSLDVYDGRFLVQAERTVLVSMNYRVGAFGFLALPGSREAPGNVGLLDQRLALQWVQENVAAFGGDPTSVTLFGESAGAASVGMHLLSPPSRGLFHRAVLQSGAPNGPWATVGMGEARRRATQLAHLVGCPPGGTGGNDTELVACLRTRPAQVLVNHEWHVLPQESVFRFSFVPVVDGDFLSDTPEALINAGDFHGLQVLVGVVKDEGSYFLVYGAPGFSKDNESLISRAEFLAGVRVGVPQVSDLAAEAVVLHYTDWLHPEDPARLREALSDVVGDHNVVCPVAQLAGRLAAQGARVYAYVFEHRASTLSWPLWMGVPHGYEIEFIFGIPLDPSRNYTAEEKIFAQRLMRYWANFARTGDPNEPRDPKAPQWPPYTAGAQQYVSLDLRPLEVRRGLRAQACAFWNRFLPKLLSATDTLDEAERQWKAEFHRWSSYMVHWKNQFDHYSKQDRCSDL
human plasma BuChE (E.C. 3.1.1.8), sequence (P06276 29-602): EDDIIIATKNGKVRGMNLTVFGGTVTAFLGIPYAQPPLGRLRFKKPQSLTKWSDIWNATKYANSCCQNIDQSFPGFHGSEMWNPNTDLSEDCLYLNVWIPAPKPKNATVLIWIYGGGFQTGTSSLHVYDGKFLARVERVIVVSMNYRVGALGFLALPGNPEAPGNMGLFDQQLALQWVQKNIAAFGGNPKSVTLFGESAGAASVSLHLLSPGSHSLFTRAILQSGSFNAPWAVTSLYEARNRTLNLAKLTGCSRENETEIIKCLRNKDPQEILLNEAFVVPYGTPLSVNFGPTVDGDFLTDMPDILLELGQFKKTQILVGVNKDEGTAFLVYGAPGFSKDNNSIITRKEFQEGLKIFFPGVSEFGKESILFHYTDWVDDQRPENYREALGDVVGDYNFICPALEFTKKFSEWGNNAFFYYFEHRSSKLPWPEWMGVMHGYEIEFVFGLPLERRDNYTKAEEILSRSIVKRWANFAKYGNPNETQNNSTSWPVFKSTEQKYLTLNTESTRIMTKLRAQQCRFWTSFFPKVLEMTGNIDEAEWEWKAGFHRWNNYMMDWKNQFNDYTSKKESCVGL

For `COc1cc2c(cc1O)CN1CCC23C=CC(OC(C)=O)CC13` (centres unmarked) [3-O-acetyl-8-O-demethylmaritidine (12), 3-O-acetyl-8-O-demethylmaritidine], in assay [1], the IC50 is greater than 100 µM and the inhibition at 100 µM is 12.3 ± 1.29%. In assay [2], the half-maximal inhibitory concentration (IC50) is greater than 100 µM and the inhibition at 100 µM was 10.3 ± 2.06%.
`COC(=O)c1cc(C(=O)O[C@H]2C[C@H]3CCN(C)[C@H]3[C@@H]3c4cc5c(cc4C(=O)O[C@H]32)OCO5)c(C)nc1C` [cliniatine C (4), cliniatine C]: the 50% inhibitory concentration (IC50) in assay [1] (setting [3]) and in assay [2] (setting [5]) was greater than 100 µM each time. Also, the results for the inhibition at 100 µM in assay [1] (setting [4]) and in assay [2] (setting [4]) were 5.72 ± 0.53% and 9.43 ± 1.23%, respectively.
In the case of `Cc1nc(C)c(C(=O)O[C@H]2C[C@H]3CCN(C)[C@H]3[C@@H]3c4cc5c(cc4C(=O)O[C@H]32)OCO5)cc1C(=O)O[C@H]1C[C@H]2CCN(C)[C@H]2[C@@H]2c3cc4c(cc3C(=O)O[C@H]21)OCO4` [clivimine (2), clivimine], the 50% inhibitory concentration (IC50) in assay [1] (setting [3]) and in assay [2] (setting [5]) was greater than 100 µM each time. The inhibition at 100 µM was 9.62 ± 1.75% in assay [1] (setting [4]) and 15.2 ± 8.23% in assay [2] (setting [4]).
`Cc1nc(C)c(C(=O)OC2CC3CCN(C)C3C3c4cc5c(cc4C(=O)OC23)OCO5)cc1C(=O)OC1CC2CCN(C)C2c2c1oc(=O)c1cc3c(cc21)OCO3` (centres unmarked) [clivimine B (3), clivimine B]: the IC50 in assay [1] (setting [3]) and in assay [2] (setting [5]) was greater than 100 µM in each case. In addition, the inhibition at 100 µM in assay [1] (setting [4]) amounted to 10.1 ± 5.37%; in assay [2] (setting [4]), 7.69 ± 2.56%.
`CN1CC[C@@H]2C[C@H](O)[C@@H]3OC(=O)c4cc5c(cc4[C@H]3[C@@H]21)OCO5` [clivonine (6), clivonine]: in assay [1], the 50% inhibitory concentration (IC50) is greater than 100 µM and the inhibition at 100 µM was 34.4 ± 1.68%. For the same compound, in assay [2], the IC50 is greater than 100 µM and the inhibition at 100 µM was 28.2 ± 6.63%.
Consider `COc1ccc2c3c1O[C@H]1C[C@@H](O)C=C[C@@]31CCN(C)C2` [galanthamine, reference compound], for which the inhibition at 100 µM in assay [2] stood at 68.2 ± 1.24%.
In the case of `CC(O)CC(=O)O[C@H]1C[C@H]2CCN(C)[C@H]2[C@@H]2c3cc4c(cc3C(=O)O[C@H]21)OCO4` (some centres unmarked) [nobilisitine B (14), nobilisitine B], the half-maximal inhibitory concentration (IC50) in assay [1] (setting [3]) and in assay [2] (setting [5]) was greater than 100 µM throughout. In addition, the inhibition at 100 µM is 40 ± 1.13% in assay [1] (setting [4]) and 12.6 ± 0.53% in assay [2] (setting [4]).
On to `COc1cc2c(cc1O)C(=O)N1CCC3=C[C@H](O)[C@@H](OC(C)=O)[C@@H]2[C@@H]31` [sternbergine (17), sternbergine], for which the inhibition at 100 µM in assay [1] is 1.25 ± 0.23%; in assay [2], 23.5 ± 2.28%. Further, the half-inhibitory concentration (IC50) in assay [1] (read-out: IC50 hAChE ± SEM) and in assay [2] (setting [5]) was greater than 100 µM in each case.
